Assay results published in US9303018B2, “Inhibitors of leukotriene production” (Boehringer Ingelheim International GmbH, priority 2013, dated 2016).

Experiments:
[1] = test system: synthesis of LTB4 in human whole blood; assay: LTB4 production inhibition assay in human whole blood (HWB); type: cell-based; details: heparinized human whole blood, calcimycin 20 μM stimulated, plasma LTB4 by HTRF
Experimental: The compounds of the invention are additionally tested in a human whole blood (HWB) assay to determine their ability to inhibit the synthesis of LTB4 in a cellular system. Compounds are combined with heparinized human whole blood and incubated for 15 minutes at 37° C. Calcimycin (20 μM final, prepared in phosphate-buffered saline, pH 7.4) is then added and the mixture is incubated for another 30 minutes at 37° C. The samples are centrifuged for 5 min at low speed (1500×g) and the plasma layer is removed. Plasma LTB4 concentrations are then measured using an antibody-based homogenous time-resolved fluorescence method (CisBio, Bedford, Mass.).

human LTA4 hydrolase = human LTA4 hydrolase (Homo sapiens (Human), UniProt P09960); assay: LTA4H Enzyme assay (peptidase, Arg-AMC cleavage); type: biochemical; details: LTA4H enzyme 1 nM, Arg-AMC substrate 50 μM, room temperature 1 h, fluorescence
human LTA4 hydrolase, sequence (P09960 whole entry): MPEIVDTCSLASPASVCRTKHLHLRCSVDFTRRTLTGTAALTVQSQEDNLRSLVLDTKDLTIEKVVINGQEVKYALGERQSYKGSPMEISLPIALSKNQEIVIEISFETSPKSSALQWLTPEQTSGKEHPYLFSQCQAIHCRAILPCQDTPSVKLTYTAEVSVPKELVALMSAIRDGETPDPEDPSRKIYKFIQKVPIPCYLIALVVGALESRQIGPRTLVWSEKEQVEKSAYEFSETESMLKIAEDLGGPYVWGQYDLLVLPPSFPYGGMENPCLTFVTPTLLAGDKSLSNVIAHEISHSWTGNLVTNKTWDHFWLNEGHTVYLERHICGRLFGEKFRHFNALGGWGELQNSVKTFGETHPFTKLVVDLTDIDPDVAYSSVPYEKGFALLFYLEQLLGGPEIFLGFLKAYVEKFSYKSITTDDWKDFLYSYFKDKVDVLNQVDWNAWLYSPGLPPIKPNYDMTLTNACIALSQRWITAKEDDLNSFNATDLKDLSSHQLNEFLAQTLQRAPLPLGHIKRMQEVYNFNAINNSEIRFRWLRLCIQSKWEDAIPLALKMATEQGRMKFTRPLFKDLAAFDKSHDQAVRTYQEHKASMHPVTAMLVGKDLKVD
Experimental: The compounds of the invention are assessed for the ability to interact with human LTA4 hydrolase in an enzymatic assay that measures the ability of the enzyme to cleave the peptide bond of arginyl-aminomethylcoumarin (Arg-AMC). LTA4H Enzyme (1 nM final), Arg-AMC substrate (50 μM final), and compound are combined in a reaction buffer (50 mM Tris-HCl (pH 7.5), 100 mM KCl, 0.5% bovine serum albumin) at room temperature for 1 h. The formation of product is assessed by measuring the fluorescence of aminomethylcoumarin product (excitation wavelength 380 nm/emission wavelength 460 nm).

SMILES | IC50 [1] | IC50 (human LTA4 hydrolase)
CC(=O)N1CCN(Cc2cnc3cc(Oc4ccc(-c5ccn[nH]5)cn4)ccc3c2)CC1 [Example 2, 1-(4-{7-[5-(2H-Pyrazol-3-yl)-pyridin-2-yloxy]-quinolin-3-ylmethyl}-piperazin-1-yl)-ethanone] | 150 nM | 0.6 nM
OC1CN(Cc2cnc3cc(Oc4ccc(-c5ccn[nH]5)cn4)ccc3c2)C1 [Example 3, 1-{7-[5-(2H-Pyrazol-3-yl)-pyridin-2-yloxy]-quinolin-3-ylmethyl}-azetidin-3-ol] | 430 nM | 4 nM
COCC(=O)N1CCN(Cc2cnc3cc(Oc4ccc(-c5ccn[nH]5)cn4)ccc3c2)CC1 [Example 4, 2-Methoxy-1-(4-{7-[5-(2H-pyrazol-3-yl)-pyridin-2-yloxy]-quinolin-3-ylmethyl}-piperazin-1-yl)-ethanone] | 170 nM | 1.4 nM
O=C1[C@@H](O)CCN1C1CCN(Cc2cnc3cc(Oc4ccc(-c5ccn[nH]5)cn4)ccc3c2)CC1 [Example 5, (S)-3-Hydroxy-1-(1-{7-[5-(2H-pyrazol-3-yl)-pyridin-2-yloxy]-quinolin-3-ylmethyl}-piperidin-4-yl)-pyrrolidin-2-one] | 370 nM | 2.6 nM
O=C1OCCN1C1CCN(Cc2cnc3cc(Oc4ccc(-c5ccn[nH]5)cn4)ccc3c2)CC1 [Example 6, 3-(1-{7-[5-(2H-Pyrazol-3-yl)-pyridin-2-yloxy]-quinolin-3-ylmethyl}-piperidin-4-yl)-oxazolidin-2-one] | 270 nM | 1.9 nM
CC1(O)CN(Cc2cnc3cc(Oc4ccc(-c5ccn[nH]5)cn4)ccc3c2)C1 [Example 8, 3-Methyl-1-{7-[5-(2H-pyrazol-3-yl)-pyridin-2-yloxy]-quinolin-3-ylmethyl}-azetidin-3-ol] | 410 nM | 2.4 nM
CN(Cc1cnc2cc(Oc3ccc(-c4ccn[nH]4)cn3)ccc2c1)[C@@H]1CCN(C(=O)CO)C1 [Example 9, 2-Hydroxy-1-[(R)-3-(methyl-{7-[5-(2H-pyrazol-3-yl)-pyridin-2-yloxy]-quinolin-3-ylmethyl}-amino)-pyrrolidin-1-yl]-ethanone] | 150 nM | 0.88 nM
CN(C(=O)CO)[C@@H]1CCN(Cc2cnc3cc(Oc4ccc(-c5ccn[nH]5)cn4)ccc3c2)C1 [Example 12, 2-Hydroxy-N-methyl-N-((R)-1-{7-[5-(2H-pyrazol-3-yl)-pyridin-2-yloxy]-quinolin-3-ylmethyl}-pyrrolidin-3-yl)-acetamide] | 180 nM | 1.8 nM
CCC(=O)N1CCN(Cc2cnc3cc(Oc4ccc(-c5ccn[nH]5)cn4)ccc3c2)CC1 [Example 14, 1-(4-{7-[5-(2H-Pyrazol-3-yl)-pyridin-2-yloxy]-quinolin-3-ylmethyl}-piperazin-1-yl)-propan-1-one] | 86 nM | 0.44 nM
CN(C(=O)CO)C1CCN(Cc2cnc3cc(Oc4ccc(-c5ccn[nH]5)cn4)ccc3c2)CC1 [Example 15, 2-Hydroxy-N-methyl-N-(1-{7-[5-(2H-pyrazol-3-yl)-pyridin-2-yloxy]-quinolin-3-ylmethyl}-piperidin-4-yl)-acetamide] | 380 nM | 3.5 nM
CC(=O)N1CC(CN(C)Cc2cnc3cc(Oc4ccc(-c5ccn[nH]5)cn4)ccc3c2)C1 [Example 16, 1-{3-[(Methyl-{7-[5-(2H-pyrazol-3-yl)-pyridin-2-yloxy]-quinolin-3-ylmethyl}-amino)-methyl]-azetidin-1-yl}-ethanone] | 110 nM | 1.1 nM
C[C@H](O)C(=O)N1CCN(Cc2cnc3cc(Oc4ccc(-c5ccn[nH]5)cn4)ccc3c2)CC1 [Example 18] | 180 nM | 1.1 nM
CN(C)C(=O)C1CCN(Cc2cnc3cc(Oc4ccc(-c5ccn[nH]5)cn4)ccc3c2)CC1 [Example 19, 1-{7-[5-(2H-Pyrazol-3-yl)-pyridin-2-yloxy]-quinolin-3-ylmethyl}-piperidine-4-carboxylic acid dimethylamide] | 480 nM | 1.5 nM
CC(C)(C)C(=O)N1CCN(Cc2cnc3cc(Oc4ccc(-c5ccn[nH]5)cn4)ccc3c2)CC1 [Example 21, 2,2-Dimethyl-1-(4-{7-[5-(2H-pyrazol-3-yl)-pyridin-2-yloxy]-quinolin-3-ylmethyl}-piperazin-1-yl)-propan-1-one] | 740 nM | 1.7 nM
CC(C)C(=O)N1CCN(Cc2cnc3cc(Oc4ccc(-c5ccn[nH]5)cn4)ccc3c2)CC1 [Example 23] | 160 nM | 0.54 nM

Continued, values first:

IC50 [1] | IC50 (human LTA4 hydrolase) | SMILES
160 nM | 0.69 nM | O=C(CO)N1CCN(Cc2cnc3cc(Oc4ccc(-c5ccn[nH]5)cn4)ccc3c2)CC1 [Example 1, 2-Hydroxy-1-(4-{7-[5-(2H-pyrazol-3-yl)-pyridin-2-yloxy]-quinolin-3-ylmethyl}-piperazin-1-yl)-ethanone]
500 nM | 3.7 nM | OC1CCN(Cc2cnc3cc(Oc4ccc(-c5ccn[nH]5)cn4)ccc3c2)CC1 [Example 7, l-{7-[5-(2H-Pyrazol-3-yl)-pyridin-2-yloxy]-quinolin-3-ylmethyl}-piperidin-4-ol]
140 nM | 1.3 nM | CN(Cc1cnc2cc(Oc3ccc(-c4ccn[nH]4)cn3)ccc2c1)[C@H]1CCN(C(=O)CO)C1 [Example 10, 2-Hydroxy-1-[(S)-3-(methyl-{7-[5-(2H-pyrazol-3-yl)-pyridin-2-yloxy]-quinolin-3-ylmethyl}-amino)-pyrrolidin-1-yl]-ethanone]
250 nM | 2.6 nM | CN(C(=O)CO)[C@H]1CCN(Cc2cnc3cc(Oc4ccc(-c5ccn[nH]5)cn4)ccc3c2)C1 [Example 11, 2-Hydroxy-N-methyl-N-((S)-1-{7-[5-(2H-pyrazol-3-yl)-pyridin-2-yloxy]-quinolin-3-ylmethyl}-pyrrolidin-3-yl)-acetamide]
220 nM | 2.5 nM | O[C@H]1CCN(Cc2cnc3cc(Oc4ccc(-c5ccn[nH]5)cn4)ccc3c2)C1 [Example 13, (S)-1-{7-[5-(2H-Pyrazol-3-yl)-pyridin-2-yloxy]-quinolin-3-ylmethyl)-pyrrolidin-3-ol]
230 nM | 1.7 nM | O[C@@H]1CCN(Cc2cnc3cc(Oc4ccc(-c5ccn[nH]5)cn4)ccc3c2)C1 [Example 17, (R)-1-{7-[5-(2H-Pyrazol-3-yl)-pyridin-2-yloxy]-quinolin-3-ylmethyl}-pyrrolidin-3-ol]
230 nM | 1.6 nM | CC(C)(O)C(=O)N1CCN(Cc2cnc3cc(Oc4ccc(-c5ccn[nH]5)cn4)ccc3c2)CC1 [Example 20, 2-Hydroxy-2-methyl-1-(4-{7-[5-(2H-pyrazol-3-yl)-pyridin-2-yloxy]-quinolin-3-ylmethyl)-piperazin-1-yl)-propan-1-one]
230 nM | 0.93 nM | O=C(C1CC1)N1CCN(Cc2cnc3cc(Oc4ccc(-c5ccn[nH]5)cn4)ccc3c2)CC1 [Example 22, Cyclopropyl-(4-{7-[5-(2H-pyrazol-3-yl)-pyridin-2-yloxy]-quinolin-3-ylmethyl}-piperazin-1-yl)-methanone]
